In patent US20240254089A1, “MODULATORS OF MAS-RELATED G-PROTEIN RECEPTOR X4 AND RELATED PRODUCTS AND METHODS” (ESCIENT PHARMACEUTICALS, INC., priority 2020, published 2024):
Read-outs that look alike come from different tables or passages of the source.

Biological target: T1, human MRGPR X4 (Homo sapiens, UniProt Q96LA9)
T1 construct: expressed in transfected cells
Test: MRGPR X4 antagonist activity, IP-One Gq HTRF assay in stably transfected HEK cells
Assay type: cell-based
Outline: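 Human MRGPR X4-expressing HEK cells, 20,000/well, were incubated with compound (10-point curve, 10 uM top, 1:3 dilutions) plus agonist (10 μM bilirubin, 20 μM deoxycholic acid or 100 μM conjugated bilirubin) in Tris/NaCl/LiCl buffer, pH 8, for 1 h at 37 °C, then 30 min at room temperature. IP-1 was read by HTRF, and IC50 was taken from the HTRF ratio.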

[1] = versus 20 μM deoxycholic acid agonist, HEK cells expressing human MRGPR X4, read-out: MRGPRX4 Antagonist Activity

T1 sequence (Q96LA9 whole entry): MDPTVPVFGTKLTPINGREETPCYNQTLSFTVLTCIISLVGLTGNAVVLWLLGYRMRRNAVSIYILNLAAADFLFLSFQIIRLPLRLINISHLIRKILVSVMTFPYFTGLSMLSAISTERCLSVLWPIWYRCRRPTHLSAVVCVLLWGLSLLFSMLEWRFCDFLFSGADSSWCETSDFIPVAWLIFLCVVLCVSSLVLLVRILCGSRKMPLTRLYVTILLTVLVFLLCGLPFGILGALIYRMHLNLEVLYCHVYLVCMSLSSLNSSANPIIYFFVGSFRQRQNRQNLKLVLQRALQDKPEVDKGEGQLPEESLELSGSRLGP

`O=C(NCc1ccc(-n2cccn2)cc1)c1nn(Cc2ccc(Cl)cc2)c2ccccc12` [Compound 359] was tested, and the IC50 was greater than 2500 nM.
`O=C(NCc1cccc(F)c1F)c1nn(Cc2ccc(Cl)cc2)c2ccccc12` [Compound 360] showed an IC50 greater than 2500 nM.
`O=C(NCCn1nnc2ccccc21)c1nn(Cc2ccc(Cl)cc2)c2ccccc12` [Compound 361] showed an IC50 of less than 100 nM.
`Cc1cccc(CCNC(=O)c2nn(Cc3ccc(Cl)cc3)c3ccccc23)c1` [Compound 362] showed an IC50 of 1000 to 2500 nM.
`Cc1ccccc1CCNC(=O)c1nn(Cc2ccc(Cl)cc2)c2ccccc12` [Compound 363] showed an IC50 greater than 2500 nM.
`COc1ccc(CCNC(=O)c2nn(Cc3ccc(Cl)cc3)c3ccccc23)cn1` [Compound 364] showed an IC50 of 100 to 500 nM.
Work on `CCOc1ccc(CCNC(=O)c2nn(Cc3ccc(Cl)cc3)c3ccccc23)cc1` [Compound 365] yielded an IC50 greater than 2500 nM.
Work on `COc1cc(CCNC(=O)c2nn(Cc3ccc(Cl)cc3)c3ccccc23)ccc1O` [Compound 366] yielded an IC50 of less than 100 nM.
Work on `Cc1ncsc1CCNC(=O)c1nn(Cc2ccc(Cl)cc2)c2ccccc12` [Compound 367] yielded an IC50 of 100 to 500 nM.
`O=C(NCc1cn2cccnc2n1)c1nn(Cc2ccc(Cl)cc2)c2ccccc12` [Compound 368] gave an IC50 of 100 to 500 nM.
`O=C(NCc1ccc(-n2cccn2)nc1)c1nn(Cc2ccc(Cl)cc2)c2ccccc12` [Compound 369] was tested, and the IC50 was greater than 2500 nM.
`O=C(NCc1cnc2ccccc2c1)c1nn(Cc2ccc(Cl)cc2)c2ccccc12` [Compound 370] showed an IC50 greater than 2500 nM.
`O=C(NCc1ccnc2ccccc12)c1nn(Cc2ccc(Cl)cc2)c2ccccc12` [Compound 371] showed an IC50 greater than 2500 nM.
Molecule `O=C(NCc1ccc2ncccc2c1)c1nn(Cc2ccc(Cl)cc2)c2ccccc12` [Compound 372] has an IC50 greater than 2500 nM.
In the case of `O=C(NCCN1CCCc2ccccc21)c1nn(Cc2ccc(Cl)cc2)c2ccccc12` [Compound 373], the IC50 is reported as 501 to 1000 nM.
In the case of `CC(=O)Nc1ccc(CNC(=O)c2nn(Cc3ccc(Cl)cc3)c3ccccc23)cc1` [Compound 374], the IC50 is reported as greater than 2500 nM.
`O=C(NCc1cncnc1)c1nn(Cc2ccc(Cl)cc2)c2ccccc12` [Compound 375] showed an IC50 greater than 2500 nM.
`O=C(NCc1ccc(O)cc1)c1nn(Cc2ccc(Cl)cc2)c2ccccc12` [Compound 376] was tested, and the IC50 was 501 to 1000 nM.
Molecule `CC(=O)Nc1cccc(CNC(=O)c2nn(Cc3ccc(Cl)cc3)c3ccccc23)c1` [Compound 377] has an IC50 greater than 2500 nM.
With `CS(=O)(=O)c1ccc(CNC(=O)c2nn(Cc3ccc(Cl)cc3)c3ccccc23)cc1` [Compound 378] the IC50 was greater than 2500 nM.
`CS(=O)(=O)c1ccccc1CNC(=O)c1nn(Cc2ccc(Cl)cc2)c2ccccc12` [Compound 379] showed an IC50 greater than 2500 nM.
Molecule `O=C(CNC(=O)c1nn(Cc2ccc(Cl)cc2)c2ccccc12)c1ccc(F)cc1F` [Compound 380] has an IC50 greater than 2500 nM.
For `O=C(NCCOc1ccccc1)c1nn(Cc2ccc(Cl)cc2)c2ccccc12` [Compound 381], the IC50 was 1000 to 2500 nM.
`O=C(CNC(=O)c1nn(Cc2ccc(Cl)cc2)c2ccccc12)c1ccc(O)cc1` [Compound 382] was tested, and the IC50 was 501 to 1000 nM.
With `Cc1noc(C)c1CCCNC(=O)c1nn(Cc2ccc(Cl)cc2)c2ccccc12` [Compound 383] the IC50 was 1000 to 2500 nM.
`CS(=O)(=O)NCCNC(=O)c1nn(Cc2ccc(Cl)cc2)c2ccccc12` [Compound 384] gave an IC50 [1] greater than 2500 nM.
Work on `O=C(NCCC1CCS(=O)(=O)CC1)c1nn(Cc2ccc(Cl)cc2)c2ccccc12` [Compound 385] yielded an IC50 greater than 2500 nM.
Work on `O=C(NCc1ccnc2[nH]ccc12)c1nn(Cc2ccc(Cl)cc2)c2ccccc12` [Compound 386] yielded an IC50 greater than 2500 nM.
`O=C(NCc1cccc2[nH]ncc12)c1nn(Cc2ccc(Cl)cc2)c2ccccc12` [Compound 387] was tested, and the IC50 was greater than 2500 nM.
For `O=C(NCc1cnn2ccccc12)c1nn(Cc2ccc(Cl)cc2)c2ccccc12` [Compound 388], the IC50 was greater than 2500 nM.
`Cn1nc(CNC(=O)c2nn(Cc3ccc(Cl)cc3)c3ccccc23)c2cccnc21` [Compound 389] gave an IC50 greater than 2500 nM.
`O=C(NCC1CCS(=O)(=O)CC1)c1nn(Cc2ccc(Cl)cc2)c2ccccc12` [Compound 390] was tested, and the IC50 [1] was greater than 2500 nM.
Molecule `Cn1cc2ccc(CNC(=O)c3nn(Cc4ccc(Cl)cc4)c4ccccc34)cc2n1` [Compound 391] has an IC50 of 1000 to 2500 nM.
`Cn1ccc(CNC(=O)c2nn(Cc3ccc(Cl)cc3)c3ccccc23)cc1=O` [Compound 392] was tested, and the IC50 was 1000 to 2500 nM.
For `O=C(NCc1nc2ccccc2o1)c1nn(Cc2ccc(Cl)cc2)c2ccccc12` [Compound 393], the IC50 was greater than 2500 nM.
With `O=C(NCc1cccnc1N1CCOCC1)c1nn(Cc2ccc(Cl)cc2)c2ccccc12` [Compound 395] the IC50 was greater than 2500 nM.
Work on `O=C(NCCc1c[nH]c2ccc(Cl)cc12)c1nn(Cc2ccc(Cl)cc2)c2ccccc12` [Compound 396] yielded an IC50 greater than 2500 nM.
With `Cn1c(CCNC(=O)c2nn(Cc3ccc(Cl)cc3)c3ccccc23)nc2ccccc21` [Compound 397] the IC50 was 100 to 500 nM.
Work on `O=C(NCCn1cncn1)c1nn(Cc2ccc(Cl)cc2)c2ccccc12` [Compound 398] yielded an IC50 greater than 2500 nM.
`CNC(=O)c1cccc(CNC(=O)c2nn(Cc3ccc(Cl)cc3)c3ccccc23)c1` [Compound 399] showed an IC50 greater than 2500 nM.
`O=C(NCCNC(=O)c1nn(Cc2ccc(Cl)cc2)c2ccccc12)c1ccccc1` [Compound 400] showed an IC50 of 100 to 500 nM.
In the case of `O=C(NCCC(=O)N1CCOCC1)c1nn(Cc2ccc(Cl)cc2)c2ccccc12` [Compound 401], the IC50 [1] is reported as 501 to 1000 nM.
In the case of `O=C(NCCc1nnc2ccccn12)c1nn(CCC2CCCCC2)c2ccccc12` [Compound 402, N-(2-([1,2,4]triazolo[4,3-a]pyridin-3-yl)ethyl)-1-(2-0cyclohexylethyl)-1H-indazole-3-carboxamide], the IC50 is reported as 100 to 500 nM.
For `O=C(NCCC(=O)N1CCCC1)c1nn(Cc2ccc(Cl)cc2)c2ccccc12` [Compound 403], the IC50 was 100 to 500 nM.
Molecule `N#Cc1ccc(CNC(=O)c2nn(Cc3ccc(Cl)cc3)c3ccccc23)nc1` [Compound 404] has an IC50 of 1000 to 2500 nM.
With `O=C(NCc1ccnnc1)c1nn(Cc2ccc(Cl)cc2)c2ccccc12` [Compound 405] the IC50 was greater than 2500 nM.
Work on `O=C(NCCOc1ccncc1)c1nn(Cc2ccc(Cl)cc2)c2ccccc12` [Compound 406] yielded an IC50 [1] of 1000 to 2500 nM.
`O=C(NCCS(=O)(=O)c1ccccc1)c1nn(Cc2ccc(Cl)cc2)c2ccccc12` [Compound 407] showed an IC50 [1] of 1000 to 2500 nM.
`N#Cc1ccc(Cn2nc(C(=O)NCCc3nnc4ccccn34)c3ccccc32)cc1` [Compound 408] showed an IC50 of 100 to 500 nM.
For `N#Cc1ccccc1Cn1nc(C(=O)NCCc2nnc3ccccn23)c2ccccc21` [Compound 409], the IC50 was 1000 to 2500 nM.
`O=C(NCCc1nnc2ccccn12)c1nn(Cc2ccc(-c3ccccc3)cc2)c2ccccc12` [Compound 410] was tested, and the IC50 [1] was greater than 2500 nM.
For `O=C(NCCc1nnc2ccccn12)c1nn(Cc2cc3c(cc2Cl)OCO3)c2ccccc12` [Compound 411], the IC50 was less than 100 nM.
Molecule `O=C(NCCc1nnc2ccccn12)c1nn(Cc2ccc3ccccc3n2)c2ccccc12` [Compound 412] has an IC50 of 100 to 500 nM.
In the case of `CC(=O)c1ccc(Cn2nc(C(=O)NCCc3nnc4ccccn34)c3ccccc32)cc1` [Compound 413], the IC50 is reported as 100 to 500 nM.
`O=C(NCCc1nnc2ccccn12)c1nn(Cc2nnc(-c3ccccc3)o2)c2ccccc12` [Compound 414] gave an IC50 of 100 to 500 nM.
`CC(C)(C)c1cnc(Cn2nc(C(=O)NCCc3nnc4ccccn34)c3ccccc32)o1` [Compound 415] showed an IC50 of 501 to 1000 nM.
Molecule `Cc1[nH]c2ccc(O)cc2c1CCNC(=O)c1nn(Cc2ccc(Cl)cc2)c2ccccc12` [Compound 416] has an IC50 of less than 100 nM.
With `O=C(CNC(=O)c1nn(Cc2ccc(Cl)cc2)c2ccccc12)NCC(F)F` [Compound 418] the IC50 was greater than 2500 nM.
`O=C(NCCN1CCCCC1=O)c1nn(Cc2ccc(Cl)cc2)c2ccccc12` [Compound 419] was tested, and the IC50 was 100 to 500 nM.
Molecule `Cc1noc(CCNC(=O)c2nn(Cc3ccc(Cl)cc3)c3ccccc23)n1` [Compound 420] has an IC50 of 1000 to 2500 nM.
For `Cc1cccn2cc(CNC(=O)c3nn(Cc4ccc(Cl)cc4)c4ccccc34)nc12` [Compound 421], the IC50 was 501 to 1000 nM.
With `CC(C)c1cc(CNC(=O)c2nn(Cc3ccc(Cl)cc3)c3ccccc23)on1` [Compound 422] the IC50 was greater than 2500 nM.
With `O=C(NCc1ccc2ccccc2n1)c1nn(Cc2ccc(Cl)cc2)c2ccccc12` [Compound 423] the IC50 was greater than 2500 nM.
`N#Cc1ccc2nc(CNC(=O)c3nn(Cc4ccc(Cl)cc4)c4ccccc34)cn2c1` [Compound 424] was tested, and the IC50 was 501 to 1000 nM.
Molecule `O=C(NCCCn1cnc2ccccc21)c1nn(Cc2ccc(Cl)cc2)c2ccccc12` [Compound 425] has an IC50 of 1000 to 2500 nM.
Work on `O=C(NCc1ccc(-n2ccnc2)cc1)c1nn(Cc2ccc(Cl)cc2)c2ccccc12` [Compound 426] yielded an IC50 of 1000 to 2500 nM.
Work on `O=C(NCc1ccc2nonc2c1)c1nn(Cc2ccc(Cl)cc2)c2ccccc12` [Compound 427] yielded an IC50 greater than 2500 nM.
For `Cn1cc2cccc(CNC(=O)c3nn(Cc4ccc(Cl)cc4)c4ccccc34)c2n1` [Compound 428], the IC50 was greater than 2500 nM.
Molecule `O=C(NCc1ncc(-c2ccccc2)[nH]1)c1nn(Cc2ccc(Cl)cc2)c2ccccc12` [Compound 429] has an IC50 of 501 to 1000 nM.
Work on `COc1ccccc1Cn1nc(C(=O)NCCc2nnc3ccccn23)c2ccccc21` [Compound 430] yielded an IC50 greater than 2500 nM.
For `Cc1nc(Cn2nc(C(=O)NCCc3nnc4ccccn34)c3ccccc32)nc2ccccc12` [Compound 431], the IC50 was 1000 to 2500 nM.
`O=C(NCCc1nnc2ccccn12)c1nn(Cc2ccc3ccccc3c2)c2ccccc12` [Compound 432] was tested, and the IC50 was less than 100 nM.
Work on `O=C(NCCc1nnc2ccccn12)c1nn(Cc2cccc3c2OCO3)c2ccccc12` [Compound 433] yielded an IC50 of 501 to 1000 nM.
`COc1cccc(Cn2nc(C(=O)NCCc3nnc4ccccn34)c3ccccc32)n1` [Compound 434] showed an IC50 of 1000 to 2500 nM.
With `CS(=O)(=O)c1ccccc1Cn1nc(C(=O)NCCc2nnc3ccccn23)c2ccccc21` [Compound 435] the IC50 [1] was greater than 2500 nM.
Molecule `O=C(NCCc1nnc2ccccn12)c1nn(Cc2ncc3cc(Cl)ccc3n2)c2ccccc12` [Compound 436] has an IC50 of 100 to 500 nM.
With `CC(C)c1noc(Cn2nc(C(=O)NCCc3nnc4ccccn34)c3ccccc32)n1` [Compound 437] the IC50 was 100 to 500 nM.
Work on `O=C(NCCc1nnc2ccccn12)c1nn(Cc2nc3ccccc3o2)c2ccccc12` [Compound 438] yielded an IC50 of 100 to 500 nM.
With `Cc1nc(Cn2nc(C(=O)NCCc3nnc4ccccn34)c3ccccc32)cs1` [Compound 439] the IC50 was 100 to 500 nM.
Molecule `O=C(NCCc1nnc2ccccn12)c1nn(Cc2ncco2)c2ccccc12` [Compound 440] has an IC50 greater than 2500 nM.
